“Also recorded” adds a separate entry of the source. Where two headings read alike, the source gives them in different places. No end group written: not given here.

The target of one experiment is T1, Fαi1GDPβ1γ2 heterotrimer (UniProt P54311+P63212).
T1 construct: made in house; host or cells: b-βγ: Sf9 insect cells
The experiment can be described thus: Dissociation of Fαi1 from preformed Fαi1β1γ2 heterotrimer (flow cytometry). The format is binding. The note with it: result in words. For orientation: In flow cytometry, cells or beads pass a laser one at a time.

Experiment [1] concerns carrageenan-induced paw edema in mice. The experiment in a line: Carrageenan-induced paw edema and neutrophil abundance. In general terms: The carrageenan paw model is a standard test of acute inflammation.
For another experiment, the system named is PLCβ2. The experiment can be described thus: Gβ1γ2-dependent activation of purified PLCβ2. It is filed as biochemical. The procedure: (§1) Purified PLCβ2 (0.25 ng) was assayed in the presence (▴) or absence (▪) of 100 nM purified Gβ1γ2. […] Assays contained 10 ng of purified p101/p110 PI3Kγ heterodimer with or without 100 nM purified Gβ1γ2. Left panel: (▴) 100 nM Gβ1γ2 or (▪) no βγ. […] M119 or M201 and 25 nM purified GRK2 were added simultaneously to 250 nM biotinylated Gβ1γ2 (bGβ1γ2) immobilized on streptavidin agarose. GRK2 was detected with antibody to GRK2. Data are representative (mean ±SEM, except D) repeated at least three times each. […] 30 nM bGβ1γ2 was incubated with either 30 nM PLCβ2 or PLCβ3 in the presence or absence of M119 or M201 for 16 h at 4° C. before precipitation with avidin agarose and detection with PLCβ2,or Gβ antibodies. […] Same as 4E with PLCβ3.
(§2) The ability of NSC119910 analogs to selectively modulate activation PLC-β2 and -β3 was analyzed. In this assay, PLC-β2 and PLC-β3 were purified and PLC enzymatic activity was measured in the presence or absence of purified βy and in the presence or absence of analog.
(§3) Nevertheless, M119 and M201 were tested in in vitro reconstitution assays of Gβγ-dependent activation of PLCβ2, PLCβ3 and PI3Kγ and binding to GRK2. […] These are only two of multiple diverse compounds identified, indicating potential for multiple modes of Gβγ-dependent target modulation by these small molecules.

For the next experiment, the system named is PI3Kγ. The experiment can be described thus: Gβ1γ2-dependent activation of purified p101/p110 PI3Kγ. The format is biochemical. Here is the method:
as §1, §3

In another experiment the test system is PLCβ3. The experiment can be described thus: Gβ1γ2-dependent activation of purified PLCβ3. It is filed as biochemical. Set-up: key to PLCb3: NE = No effect. The note with it: for IC50: Table 4, read-out: PLC β3 IC50. The procedure: as §1, §2, §3
Experiment [2] relates to human μ opioid receptor (hMOR-CHO cells). The experiment can be described thus: Total inositol phosphate assay in hMOR-CHO cells. It is filed as cell-based. Here is the method:
Chinese hamster ovary (CHO) cells stably expressing either the human κ (hKOR-CHO), δ (hDOR-CHO)(L. Toll, Stanford Research Institute, Palo Alto, Calif.) or μ (hMOR-CHO)(G. Uhl, National Institute on Drug Abuse, Baltimore, Md.) opioid receptor were used in the experiments. Cells in 6-well plates were labeled by adding 4 μCi of [^3H]inositol for 24 hr in inositol-free F-10 media, without serum. After labeling, LiCl was added directly to the labeling media at a final concentration of 10 mM. Ligands or peptides were added at the same time. The final volume of each well was 1 mL. The plates were put back in to the incubator at 37° C. for 30 min after which time the medium was aspirated and the plates were washed twice with 1× PBS. Ice-cold 50 mM formic acid, 1 mL, was added to the plates which were placed in the cold room at 4° C. for 30 min. After the incubation, the contents of the plates were applied to Dowex AG1-X8 columns and allowed to flow all the way through the column. The columns were washed, twice each, with 50 and 100 mM formic acid, for a total of four washes, followed by elution of the IP-containing fraction with 3 mL of 1.2 M ammonium formate/0.1 M formic acid. The eluted fraction was mixed with Scintisafe scintillation fluid, for high salt, and counted. The data are represented as the fold increase over control in total inositol phospates. All experiments were repeated three times and performed in duplicate. Control cells for each experiment were labeled with [^3H]inositol and LiCl, in the same manner as the treatment groups.

The target of another experiment is Gβ1γ2 (UniProt P54311+P63212). The experiment can be described thus: Competition phage ELISA: inhibition of SIGK-phage binding to immobilized biotinylated Gβ1γ2. Details: made in house; host or cells: Sf9 insect cells (baculovirus; co-expressed with BirA and (His)6-Gαi1, from which βγ was eluted); species or system rat. Here is the method:
Phage ELISA assays used to assess peptide binding to wild-type and mutant b-βγ were performed according to standard methods (Smrcka and Scott (2002) Methods Enzymol. 344:557-76). Briefly, 1 μg streptavidin was immobilized in the well of a […] overnight at 4° C. The wells were blocked with 100 μL of 2% bovine serum albumin (BSA) in Tris-buffered saline (TBS) for 1 hour at 4° C. followed by three washes of IX TBS/0.5% TWEEN®. […] The wells were washed, followed by the addition of IxIO^6 to IxIO^10 phage particles and incubated at 4° C. for 3 hours. The wells were then washed six times with TBS/0.5% TWEEN® followed by addition of 40 μL of 1:5000 dilution of anti-M13 antibody (Pharmacia, Uppsala, Sweden) and incubated at room temperature for 1 hour. The wells were washed, followed by the addition of 40 μL of (2,2′-Azino-bis (3-ethylbenzthiazoline)-6-sulfonic acid (ABTS) and the colorimetric reaction was monitored at 405 nm. Nonspecific binding was subtracted for each reading.
A phage ELISA assay was used to determine whether small molecules identified in the computational screen could interact with the Gβy protein interaction surface. […] The screen was based on a reduction in the optical density (OD) of wells containing Gβγ subunits and phage. […] Three background wells contained no βy subunits.
As disclosed herein, biotinylated Gβy subunits were immobilized on the surface of a 96-well plate coated with streptavidin, phage displaying Gβγ-binding peptides were subsequently added and binding in the presence and absence of test compounds detected with an anti-phage antibody.
The phage ELISA assay was used to rapidly screen the ability of compounds to bind to the protein interaction “hot spot” based on the method of Scott et. al (Scott et al., 2001). This assay is performed in the presence of detergent (0.5% Tween) to eliminate non-specific compound aggregation artifacts.
Compounds/DMSO and 0.1×10^10 phage were added simultaneously and subsequently incubated for 1 h at room temperature. Plates were then washed with 1× Tris-buffered saline/0.5% Tween 20 and incubated with anti-M13, HRP-conjugated antibody (Amersham, Chalfont St. Giles, Buckinghamshire, UK). Phage binding was determined by monitoring A405 upon addition of 2,2′-azino-bis(3-ethylbenzothiazoline-6-sulfonic acid) (Sigma Aldrich).

For experiment [3], the system named is opioid-induced antinociception in mice. The experiment in a line: 55° C. warm-water tail-flick antinociception. The format is in vivo, mouse. The note with it: i.c.v., 20 min, 55° C. tail-flick; 95% CL in parentheses.
Another experiment has as its target T2, Gαi1-Gβ1γ2 interaction (UniProt P54311+P63212).
T2 construct: made in house; host or cells: b-βγ: Sf9 insect cells
The experiment in a line: Flow cytometry competition for FITC-Gαi1 binding to immobilized b-Gβ1γ2. Particulars: peptides; read-out: IC50 for competition with Gαi binding to Gβ1γ2. The procedure:
(2003) supra; Sarvazyan, et al. (1998) J. Biol. […] Fluorescein-labeled Ga^ (Fan) was prepared in accordance with standard methods (Sarvazyan, et al. (1998) supra). Assays were used to determine peptide effects on Gα-Gβγ interactions included competition and dissociation assays (Ghosh, et al. (2003) supra). […] The bead-associated fluorescence was then recorded in a BD Biosciences […] flow cytometer. Data was corrected for background fluorescence and fit with a sigmoid dose response curve using Graph Pad Prism 4. To measure dissociation of Fan from b-Gβaγ2, 100 pM of Fa^ was incubated with 50 pM immobilized b-Gβ1γ2 at room temperature for 15-20 minutes.

In the case of `C[C@H](NC(=O)[C@H](CS)NC(=O)[C@@H](N)CO)C(=O)N[C@@H](CCCNC(=N)N)C(=O)N[C@@H](Cc1ccccc1)C(=O)N[C@@H](Cc1ccccc1)C(=O)NCC(=O)N[C@H](C(=O)N1CCC[C@H]1C(=O)NCC(=O)N[C@@H](CS)C(=O)N[C@H](C(=O)O)[C@@H](C)O)[C@@H](C)O` [SCAR], the “promotion/acceleration of heterotrimer dissociation” value (shortened to “promotion/acceleration”) on Fαi1GDPβ1γ2 heterotrimer was “could not promote dissociation of a preformed heterotrimer; also recorded: the same as the intrinsic rate”.
Consider `COc1ccc2c(c1)c(CC(=O)O)c(C)n2C(=O)c1ccc(Cl)cc1` [indomethacin], for which, in experiment [1] (i.p. 1 h before carrageenan, gallein 100 mg/kg, indomethacin 2.5 mg/kg, result in words), the “effect on carrageenan-induced paw edema” value is reported as “sharply reduced”. In addition, in experiment [1] (i.p. pretreatment, 2 h after carrageenan), the “reduction of exudate volume” value is on record as “approximately 75%”.
Take `Nc1ccc(-c2ccc(Nc3cc(S(=O)(=O)O)c(N)c4c3C(=O)c3ccccc3C4=O)cc2)c(S(=O)(=O)O)c1` [drawing 57]: in the experiment on PLCβ2 (Table 3, read-out: PLCβ2 IC50), the IC50 is over 30 µM.
On to `Nc1ccc(-c2ccc(Nc3cc(S(=O)(=O)O)c(N)c4c3C(=O)c3ccccc3C4=O)cc2)c(S(=O)(=O)O)c1` [drawing 65], for which the IC50 in the experiment with PI3Kγ (Table 5, read-out: PI3Kγ IC50) was 16 µM.
With `Nc1ccc(Nc2cc(S(=O)(=O)O)c(N)c3c2C(=O)c2ccccc2C3=O)cc1` [drawing 55], in the experiment on PLCβ2 (Table 3, read-out: PLCβ2 IC50), the IC50 turned out to be 75 µM.
Consider `Nc1ccc(-c2ccc(Nc3cc(S(=O)(=O)O)c(N)c4c3C(=O)c3ccccc3C4=O)cc2)c(S(=O)(=O)O)c1` [drawing 61], for which, in the experiment on PLCβ3, the IC50 is 62 µM.
In the case of `Nc1c(S(=O)(=O)O)cc(Nc2cccc(S(N)(=O)=O)c2)c2c1C(=O)c1ccccc1C2=O` [drawing 62], the IC50 in the experiment with PI3Kγ (Table 5, read-out: PI3Kγ IC50) turned out to be 10 µM.
`CC[C@H](C)[C@H](NC(=O)[C@H](CC(N)=O)NC(=O)[C@H](CC(C)C)NC(=O)[C@H](C)NC(=O)[C@H](C)NC(=O)[C@H](CCCNC(=N)N)NC(=O)[C@@H](NC(=O)[C@@H](N)CO)[C@@H](C)CC)C(=O)N[C@@H](CC(C)C)C(=O)NCC(=O)N[C@@H](Cc1ccc(O)cc1)C(=O)N1CCC[C@H]1C(=O)N[C@@H](CC(=O)O)C(=O)N[C@@H](Cc1ccc(O)cc1)C(=O)N[C@@H](CC(=O)O)C(=O)O` [SIRK(Lys4Ala)]: the “promotion/acceleration” value on Fαi1GDPβ1γ2 heterotrimer was “failed to accelerate heterotrimer dissociation”.
With `COC(=O)/C=C/C(=O)N[C@@H]1CC[C@@]2(O)[C@H]3Cc4ccc(O)c5c4[C@@]2(CCN3CC2CC2)[C@H]1O5` [β-FNA, β-funaltrexamine], in [2], the “effect on DAMGO- and morphine-dependent IP production” value was “attenuated”.
As to `Nc1cccc(Nc2cc(S(=O)(=O)O)c(N)c3c2C(=O)c2ccccc2C3=O)c1` [drawing 60], the IC50 with PLCβ3 amounted to 15 µM.
On to `O=C1c2ccccc2C(=O)c2c(Nc3cc4c5c(ccc6c7ccc8c9c(cc(Nc%10cccc%11c%10C(=O)c%10ccccc%10C%11=O)c(c3c56)c97)-c3ccccc3C8=O)C(=O)c3ccccc3-4)cccc21` [Compound M231], for which the IC50 with PLCβ2 (Table 19, effector IC50, read-out: PLCb2) turned out to be 167 µM; in the experiment on PI3Kγ (Table 19, effector IC50, read-out: PI 3-Kg), 13.5 µM; on Gβ1γ2 (Table 8, read-out: IC50) it was 16 µM; on Gβ1γ2 (Table 18, compounds identified in Elisa screen, read-out: IC50) it was 16 µM; at Gβ1γ2 (Table 19, read-out: ELISA), 27 µM. Further, the PLCb3 result in the experiment on PLCβ3 (Table 19, effector IC50) is “NE”.
`C[C@@H](NC(=O)[C@@H](N)Cc1ccc(O)cc1)C(=O)NCC(=O)N(C)[C@@H](Cc1ccccc1)C(=O)NCCO` [DAMGO, [D-Ala^2, N-Me-Phe^4, Gly^5-ol]-enkephalin]: in experiment [3], the “ED50 of opioid agonist alone” value was found to be 0.07 nmol. Further, the “increase in total IP compared to control” value in experiment [2] is 4 fold.
As for `Nc1ccc(Nc2cc(S(=O)(=O)O)c(N)c3c2C(=O)c2ccccc2C3=O)cc1` [drawing 63], in the experiment with PI3Kγ (Table 5, read-out: PI3Kγ IC50), the IC50 came out at 2.5 µM.
Turning to `Nc1cccc(Nc2cc(S(=O)(=O)O)c(N)c3c2C(=O)c2ccccc2C3=O)c1` [drawing 56], the IC50 in the experiment with PLCβ2 (Table 3, read-out: PLCβ2 IC50) amounted to 14 µM.
Turning to `Nc1c(S(=O)(=O)O)cc(Nc2cccc(S(N)(=O)=O)c2)c2c1C(=O)c1ccccc1C2=O` [drawing 58], the IC50 in the experiment with PLCβ3 came to 58 µM.
Regarding `Nc1cccc(Nc2cc(S(=O)(=O)O)c(N)c3c2C(=O)c2ccccc2C3=O)c1` [drawing 64], the IC50 with PI3Kγ (Table 5, read-out: PI3Kγ IC50) stood at 6 µM.
For the compound `Nc1ccc(Nc2cc(S(=O)(=O)O)c(N)c3c2C(=O)c2ccccc2C3=O)cc1` [drawing 59], the IC50 in the experiment with PLCβ3 came to 12 µM.
For SIRKALNILAYPDYD [SIRK(GIyIOAIa)], the IC50 at Gαi1-Gβ1γ2 interaction is about 80 µM. Further, at Fαi1GDPβ1γ2 heterotrimer, the “promotion/acceleration” value was “could still accelerate heterotrimer dissociation”.

(Values after US8975259B2, “Compositions and methods for inhibiting G protein signaling” (University of Rochester, priority 2007, dated 2015).)
